According to BindingDB's records for doi:10.1080/14756360600991017 (University of Athens, 2007):
pIC50: −log10 of the molar value.

Target: T1, Seed linoleate 13S-lipoxygenase-1 (Glycine max, UniProt P08170)
T1 sequence (P08170 whole entry): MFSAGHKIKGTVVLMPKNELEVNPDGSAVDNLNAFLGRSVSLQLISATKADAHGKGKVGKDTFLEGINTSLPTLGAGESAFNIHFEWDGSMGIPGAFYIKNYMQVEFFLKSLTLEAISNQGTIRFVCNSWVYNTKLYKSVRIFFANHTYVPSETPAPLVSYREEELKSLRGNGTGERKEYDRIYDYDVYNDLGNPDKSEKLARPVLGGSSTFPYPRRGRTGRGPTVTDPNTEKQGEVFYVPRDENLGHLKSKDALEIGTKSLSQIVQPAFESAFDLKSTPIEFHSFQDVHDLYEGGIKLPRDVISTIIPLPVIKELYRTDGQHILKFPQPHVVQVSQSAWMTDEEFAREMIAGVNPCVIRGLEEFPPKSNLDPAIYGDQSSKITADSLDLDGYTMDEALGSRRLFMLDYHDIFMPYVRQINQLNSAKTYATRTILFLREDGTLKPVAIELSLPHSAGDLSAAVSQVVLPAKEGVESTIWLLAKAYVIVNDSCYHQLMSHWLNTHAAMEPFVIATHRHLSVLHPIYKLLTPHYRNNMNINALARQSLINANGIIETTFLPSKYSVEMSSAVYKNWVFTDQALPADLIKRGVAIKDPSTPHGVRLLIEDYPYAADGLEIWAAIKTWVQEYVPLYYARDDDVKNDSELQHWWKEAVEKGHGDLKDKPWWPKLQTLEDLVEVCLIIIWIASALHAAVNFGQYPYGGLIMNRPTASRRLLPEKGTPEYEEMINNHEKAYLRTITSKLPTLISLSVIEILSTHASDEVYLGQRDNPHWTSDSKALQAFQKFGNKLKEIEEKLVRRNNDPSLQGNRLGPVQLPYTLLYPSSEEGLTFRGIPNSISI
Assay: Inhibition Assay
Conditions: 25 °C
Procedure: soybean lipoxygenase and linoleic acid sodium salt were obtained from Sigma Chemical, Co. in St. Louis, MO. Each experiment of the in vitro assay was performed at least in triplicate and the standard deviation of absorbance was less than 10% of the mean.

| pIC50 | Structure (SMILES) |
| --- | --- |
| 2.94 | O=C(/C=C/c1ccc(O)c(O)c1)O[C@H](Cc1ccc(O)c(O)c1)C(=O)O [Rosmarinic acid, 2] |
| 3.44 | CC(C)C1=C[C@H](O)[C@@](C)(O[C@@H]2OC(CO)[C@@H](O)[C@H](O)C2O)CC1 (some centres undefined) [p-menth-3-ene-1,2-diol 1-O-B-glucopyranoside, 5] |
| 3.25 | O=C(O)C[C@H]1CCC(=O)[C@@H]1C/C=C/CCO[C@H]1OC(CO)[C@H](O)C(O)[C@H]1O (some centres undefined) [12-hydroxy-jasmonic acid 12-O-B-glucoside, 4] |
| 3.00 | O=C(/C=C/c1ccc(O)c2c1C(C(=O)O[C@@H](Cc1ccc(O)c(O)c1)C(=O)O)[C@@H](c1ccc(O)c(O)c1)O2)O[C@H](Cc1ccc(O)c(O)c1)C(=O)O (some centres undefined) [Lithospermic acid, 3] |
